In patent publication US12286440B2, “Penam derivative or salt thereof, pharmaceutical composition, and applications thereof” (priority 2018, dated 2025):

Tested on: multidrug-resistant Pseudomonas aeruginosa strain (S-2838 strain)
Assay: Test for protection against systemic infection in mouse with multidrug-resistant Pseudomonas aeruginosa
Assay type: in vivo, ICR male SPF mice
Conditions: sc, 72 h, read-out: survival rate
Experimental: As mice, ICR male SPF mice (4 weeks old: 10 mice per group) were used. Clinically isolated multidrug-resistant Pseudomonas aeruginosa strain (S-2838 strain) cultured overnight on a Mueller-Hinton agar plate at 37° C. was cultured on a cation-adjusted Mueller Hinton medium for 5 hours, and then diluted 20-fold with a 10% mucin/phosphate buffer, thereby preparing an inoculum. An infection was induced by intraperitoneally inoculating the mice with the inoculum at 0.5 mL (about 10^6 CFU/mouse). Each test compound was dissolved in physiological saline, and 1 hour after the infection, the compound was subcutaneously administered once to the mice at 40 mg/kg. The control group was administered with the same amount of physiological saline used as a vehicle. The number of surviving mice was recorded 3 days after the infection.
A test for protection against systemic infection in a mouse with multidrug-resistant Pseudomonas aeruginosa was performed in the same manner as in Test Example 2.

SMILES | responders at 40 mg/kg [%]
CC(C)(O/N=C(\C(=O)N[C@@H]1C(=O)N2C[C@@](C(=O)O)(N3CCN(NC(=O)C(=O)c4ccc(O)c(O)c4Cl)C3=O)S[C@H]12)c1csc(N)n1)C(=O)O [Example 20, (3R,5R,6R)-6-((Z)-2-(2-aminothiazol-4-yl)-2-(((2-carboxypropan-2-yl)oxy)imino)acetamido)-3-(3-(2-(2-chloro-3,4-dihydroxyphenyl)-2-oxoacetamido)-2-oxoimidazolidin-1-yl)-7-oxo-4-thia-1-azabicyclo[3.2.0]heptane-3-carboxylate] | ≥ 90
Nc1nc(/C(=N/OC2(C(=O)O)CC2)C(=O)N[C@@H]2C(=O)N3C[C@@](C(=O)O)(N4CCN(NC(=O)C(=O)c5ccc(O)c(O)c5Cl)C4=O)S[C@H]23)cs1 [Example 21, (3R,5R,6R)-6-((Z)-2-(2-aminothiazol-4-yl)-2-((1-carboxycyclopropoxy)imino)acetamido)-3-(3-(2-(2-chloro-3,4-dihydroxyphenyl)-2-oxoacetamido)-2-oxoimidazolidin-1-yl)-7-oxo-4-thia-1-azabicyclo[3.2.0]heptane-3-carboxylate] | ≥ 90
CC(C)(O/N=C(\C(=O)N[C@@H]1C(=O)N2C[C@@](C(=O)O)(N3CCN(NC(=O)C(=O)c4ccc(O)c(O)c4Cl)C3=O)S[C@H]12)c1nc(N)sc1Cl)C(=O)O [Example 22, (3R,5R,6R)-6-((Z)-2-(2-amino-5-chlorothiazol-4-yl)-2-(((2-carboxypropan-2-yl)oxy)imino)acetamido)-3-(3-(2(2-chloro-3,4-dihydroxyphenyl)-2-oxoacetamido)-2-oxoimidazolidin-1-yl)-7-oxo-4-thia-1-azabicyclo[3.2.0]heptane-3-carboxylate] | ≥ 90
CC(C)(O/N=C(\C(=O)N[C@@H]1C(=O)N2C[C@@](C(=O)O)(N3CCN(NC(=O)C(=O)c4ccc(O)c(O)c4Cl)C3=O)S[C@H]12)c1nsc(N)n1)C(=O)O [Example 23, (3R,5R,6R)-6-((Z)-2-(5-amino-1,2,4-thiadiazol-3-yl)-2-(((2-carboxypropan-2-yl)oxy)imino)acetamido)-3-(3-(2-(2-chloro-3,4-dihydroxyphenyl)-2-oxoacetamido)-2-oxoimidazolidin-1-yl)-7-oxo-4-thia-1-azabicyclo[3.2.0]heptane-3-carboxylate] | ≥ 90
Nc1nc(/C(=N/OC2(C(=O)O)CC2)C(=O)N[C@@H]2C(=O)N3C[C@@](C(=O)O)(N4CCN(NC(=O)CCNC(=O)C(=O)c5ccc(O)c(O)c5Cl)C4=O)S[C@H]23)cs1 [Example 31, (3R,5R,6R)-6-((Z)-2-(2-aminothiazol-4-yl)-2-((1-carboxycyclopropoxy)imino)acetamido)-3-(3-(3-(2-(2-chloro-3,4-dihydroxyphenyl)-2-oxoacetamido)propanamido)-2-oxoimidazolidin-1-yl)-7-oxo-4-thia-1-azabicyclo[3.2.0]heptane-3-carboxylate] | ≥ 90
CC(C)(O/N=C(\C(=O)N[C@@H]1C(=O)N2C[C@@](C(=O)O)(N3CCN(NC(=O)c4cc(Cl)c(O)c(O)c4Cl)C3=O)S[C@H]12)c1csc(N)n1)C(=O)O [Example 83, (3R,5R,6R)-6-((Z)-2-(2-aminothiazol-4-yl)-2-(((2-carboxypropan-2-yl)oxy)imino)acetamido)-3-(3-(2,5-dichloro-3,4-dihydroxybenzamido)-2-oxoimidazolidin-1-yl)-7-oxo-4-thia-1-azabicyclo[3.2.0]heptane-3-carboxylate] | ≥ 90
CC[C@H](O/N=C(\C(=O)N[C@@H]1C(=O)N2C[C@@](C(=O)O)(N3CCN(NC(=O)C(=O)c4ccc(O)c(O)c4Cl)C3=O)S[C@H]12)c1csc(N)n1)C(=O)O [Example 105, (3R,5R,6R)-6-((Z)-2-(2-aminothiazol-4-yl)-2-(((S)-1-carboxypropoxy)imino)acetamido)-3-(3-(2-(2-chloro-3,4-dihydroxyphenyl)-2-oxoacetamido)-2-oxoimidazolidin-1-yl)-7-oxo-4-thia-1-azabicyclo[3.2.0]heptane-3-carboxylate] | ≥ 90
CC(C)[C@H](O/N=C(\C(=O)N[C@@H]1C(=O)N2C[C@@](C(=O)O)(N3CCN(NC(=O)C(=O)c4ccc(O)c(O)c4Cl)C3=O)S[C@H]12)c1csc(N)n1)C(=O)O [Example 114, (3R,5R,6R)-6-((Z)-2-(2-aminothiazol-4-yl)-2-(((S)-1-carboxy-2-methylpropoxy)imino)acetamido)-3-(3-(2-(2-chloro-3,4-dihydroxyphenyl)-2-oxoacetamido)-2-oxoimidazolidin-1-yl)-7-oxo-4-thia-1-azabicyclo[3.2.0]heptane-3-carboxylate] | ≥ 90
CC(C)(O/N=C(\C(=O)N[C@@H]1C(=O)N2C[C@@](C(=O)O)(N3CCN(NC(=O)/C(=N\O)c4ccc(O)c(O)c4Cl)C3=O)S[C@H]12)c1csc(N)n1)C(=O)O [Example 117, (3R,5R,6R)-6-((Z)-2-(2-aminothiazol-4-yl)-2-(((2-carboxypropan-2-yl)oxy)imino)acetamido)-3-(3-((Z)-2-(2-chloro-3,4-dihydroxyphenyl)-2-(hydroxyimino)acetamido)-2-oxoimidazolidin-1-yl)-7-oxo-4-thia-1-azabicyclo[3.2.0]heptane-3-carboxylate] | ≥ 90
CC(C)(O/N=C(\C(=O)N[C@@H]1C(=O)N2C[C@@](C(=O)O)(N3CCN(NC(=O)CCNC(=O)/C(=N\O)c4ccc(O)c(O)c4Cl)C3=O)S[C@H]12)c1csc(N)n1)C(=O)O [Example 122, (3R,5R,6R)-6-((Z)-2-(2-aminothiazol-4-yl)-2-(((2-carboxypropan-2-yl)oxy)imino)acetamido)-3-(3-(3-((Z)-2-(2-chloro-3,4-dihydroxyphenyl)-2-(hydroxyimino)acetamido)propanamido)-2-oxoimidazolidin-1-yl)-7-oxo-4-thia-1-azabicyclo[3.2.0]heptane-3-carboxylate] | ≥ 90
CC(C)(O/N=C(\C(=O)N[C@@H]1C(=O)N2C[C@@](C(=O)O)(N3CCN(NC(=O)C(=O)c4ccc(O)c(O)c4Cl)C(=O)C3=O)S[C@H]12)c1csc(N)n1)C(=O)O [Example 126, (3R,5R,6R)-6-((Z)-2-(2-aminothiazol-4-yl)-2-(((2-carboxypropan-2-yl)oxy)imino)acetamido)-3-(4-(2-(2-chloro-3,4-dihydroxyphenyl)-2-oxoacetamido)-2,3-dioxopiperazin-1-yl)-7-oxo-4-thia-1-azabicyclo[3.2.0]heptane-3-carboxylate] | ≥ 90
COC[C@@H](NC(=O)C(=O)c1ccc(O)c(O)c1Cl)C(=O)NN1CCN([C@]2(C(=O)O)CN3C(=O)[C@@H](NC(=O)/C(=N\OC(C)(C)C(=O)O)c4csc(N)n4)[C@H]3S2)C1=O [Example 139, (3R,5R,6R)-6-((Z)-2-(2-aminothiazol-4-yl)-2-(((2-carboxypropan-2-yl)oxy)imino)acetamido)-3-(3-((R)-2-(2-(2-chloro-3,4-dihydroxyphenyl)-2-oxoacetamido)-3-methoxypropanamido)-2-oxoimidazolidin-1-yl)-7-oxo-4-thia-1-azabicyclo[3.2.0]heptane-3-carboxylate] | ≥ 90
